Data published in patent US7482008B1, “Human T cell reactive feline protein (TRFP) isolated from house dust and uses therefor” (Merck Patent GmbH, priority 1989, dated 2009).

What was measured:
Assay type in all cases: in vivo, mouse
B6CBAF1 mice [1] = assay: Oral induction of T cell non-responsiveness, protocol 1; details: fed on days -7, -5, -2
Description: The draining lymph nodes (i.e., inguinal, paraaortic and popliteal), the mesenteric lymph nodes, and the spleen were surgically removed from the animals 10-12 days after antigen challenge. Cells from these tissues were suspended by being forced through a stainless steel mesh with a glass pestle. The cells were washed twice in RPMI 1640 medium with a 1% fetal calf serum (FCS) before culture. All cells were cultured at 37° C. in 5% CO2 in RPMI 1640 with 10% FCS (no. F4884, Sigma), 100 units of penicillin G per ml, 10 μg of streptomycin per ml, 10 mM glutamine, and 0.05 mM 2-mercaptoethanol. […]. Cells were cultured in triplicate, 0.2 ml per well at 4×10^6 cells per ml, in 96-well plates. Supernatants were removed from the wells after 24 hours to test for the production of IL-2 or IL-3 and were frozen to kill any transferred cells or removed after 48 hours for testing IL-4 production. Separate triplicate wells were incubated for 96 hours for the proliferation assay. The supernatants were kept at […] for several days to kill transferred cells.
Lymph node of spleen cells were plated in a flat bottom 96-well plate (4×10^5/well) in 100 μl medium. Peptide or recombinant protein or control solution (100 μl) is added to each well and the cells allowed to incubate for 1 day at 37° C. On day 2, the cultures were pulsed with [^3H] thymidine (1 μCi per well in 50 μl of medium; 1 Ci=37 GBq) for 4 to 6 hours, and on day 3, the plates were harvested with a 96-well harvester (Tomtec, Orange, Conn.) and counted on a Betaplate scintillation counter (Pharmacia, Upsaala Sweden).
To measure IL-2, supernatants were tested after thawing for the ability to support the growth of an IL-2-dependent line such as CTLL-2 (University of California, Berkeley). […] After a 24 hour incubation, the cells were pulsed with [^3H] thymidine (1 μCi per well in 50 μl of medium; 1 Ci=37 GBq) for 4 to 6 hours and the plates were harvested with a 96-well harvester (Tomtec, Orange, Conn.) and counted on a Betaplate scintillation counter (Pharmacia, Upsaala Sweden).

Balb/c mice = assay: Oral rChain 1, antibody response ELISA, protocol 2
Description: Four groups of five age-matched Balb/c 6- to 10-week-old female mice (The Jackson Laboratory, Bar Harbor, Me.) were fed on days −7, −5 and −2 with 250 μg cleaved, purified, recombinant TRFP Chain 1 (rChain) (Groups 1 and 3) or with PBS (Groups 2 and 4). On day 0, the mice in Groups 1 and 2 were challenged with an intraperitoneal (i.p.) injection of 10 μg rChain 1 in alum, while the mice in Groups 3 and 4 were challenged on day 0 with an i.p. injection of 100 μg rChain 1 in CFA. […]
Subsequent incubations were for 1 hour at 37° C. The wells were washed with PBS containing 0.05% Tween 20 and blocked with 0.5% gelatin in PBS. Sera were diluted in PBS as noted in the individual assay and were incubated in triplicate on the washed plates. After incubation and washing, the bound mouse antibody was detected by incubation with biotinylated goat anti-mouse IgG (Southern Biotechnology Ass.). […] 3,3′,5,5′-Tetramethylbenzidine peroxidase substrate (Kirkegaard & Perry Labs) was used according to directions supplied, and resulting OD (450 nm) values were determined using an ELISA reader (Bio-Tek model 310, Winooski, Vt.). […]
Antigen-bound IgE was detected similarly except using a biotinylated rat monoclonal antibody specific for mouse IgE (Baniyash et al. (1984) Eur. J. Immunol. 14:799-807). […]

B6CBAF1 mice [2] = assay: Tolerization s.c. then challenge with recombinant chain 1 of TRFP, chain 1 specific IL-2 production; details: 150 μg/dose s.c. days 0 and 5; challenge 100 μg recombinant chain 1 in CFA
Description: The mice were injected with 150 μg/dose of either the TRFP chain 1 or each of the peptides (days 0 and 5). The PBS alone and the PBS/peptides were injected in 300 μl/dose. The PBS/chain 1 of the TRFP protein was injected in 100 μl/dose. All tolerizing doses were at a single site under the dorsal skin between the forelimbs. On day 10 all of the animals received a challenge injection of 100 μg recombinant chain 1 of TRFP in 200 μl CFA as described above. On day 20 the animals were sacrificed and draining lymph nodes were removed as described above. The lymph node cells were suspended, rinsed, and cultured as above with or without 150 μg/ml recombinant chain 1 of TRFP. The lymph node cell cultures in this experiment were each 0.1 ml. The supernatants from the cultures were assayed for IL-2 as described above.

| Substance | spleen cell IL-2 production (B6CBAF1 mice [1]) | spleen cell proliferation (B6CBAF1 mice [1]) | proliferation of and production of IL-2 by draining and mesenteric lymph node cells (B6CBAF1 mice [1]; challenge 100 μg in CFA) | IgE binding to rChain 1 (Balb/c mice; 92 days after challenge, compared to PBS) | IgG response to rChain 1 (Balb/c mice; oral administration, up to 100 days after treatment) | IL-2 production specific for chain 1 of TRFP (B6CBAF1 mice [2]) |
| --- | --- | --- | --- | --- | --- | --- |
| peptide Y: amino acid residues 29-55 from chain 1 of TRFP (SEQ. ID. NO: 18) (KALPVVLENARILKNCVDAKMTEEDKE) | limited in their ability to produce IL-2 | no effect on spleen cell proliferation | decreased | – | – | – |
| recombinant chain 1: recombinant TRFP chain 1 expressed in E. coli | – | – | – | less IgE binding to rChain 1 | depressed level of IgG response | effective in decreasing IL-2 production |
